Experimental data taken from US20260014210A1, “SYMBIOTIC BACTERIUM IN HUMANS FOR PROMOTING HAIR GROWTH AND USE THEREOF” (priority 2022, published 2026).

Experiments:
[1] = test system: Dunkin Hartley guinea pigs; conditions: 200 μL applied on D0, D7, D14, provocation D28; ShC4 2E10 CFU; scored to 72 hours after stimulation
[2] = test system: ShC4 strain; test: ShC4 antibiotic sensitivity test (antibiotic sensitivity tablets); format: cell-based, Staphylococcus hominis; conditions: for Mean diameter (mm) of inhibitory ring: antibiotic content per tablet, 36±1° C., 24 hours, three replicates; for sensitivity of ShC4 strain to the antibiotic (in words): summary of Table 1
[3] = standard for oxacillin and piperacillin
[4] = standard for penicillin and ampicillin
[5] = standard for tetracycline and minocycline

Row | Molecule | Mean diameter (mm) of inhibitory ring [2] [mm] | sensitivity of ShC4 strain to the antibiotic (in words) [2] | also measured
1 | 2,4-dinitrochlorobenzene [CDNB] | – | – | allergy rate [1]: 100%
2 | Cc1onc(-c2ccccc2)c1C(=O)N[C@@H]1C(=O)N2[C@@H]1SC(C)(C)[C@@H]2C(=O)O [Oxacillin (OX), Oxacillin] | 29.4 | sensitive | Sensitivity [2, 3]: S (≥18)
3 | CCN1CCN(C(=O)N[C@@H](C(=O)N[C@@H]2C(=O)N3[C@@H]2SC(C)(C)[C@@H]3C(=O)O)c2ccccc2)C(=O)C1=O [Piperacillin] | 18.86 | sensitive | Sensitivity [2, 3]: S (≥18)
4 | CC1(C)S[C@@H]2[C@H](NC(=O)[C@H](N)c3ccccc3)C(=O)N2[C@H]1C(=O)O [ampicillin] | 16.69 | resistance | Sensitivity [2, 4]: R (≤28)
5 | CC[C@H]1OC(=O)[C@H](C)[C@@H](O[C@H]2C[C@@](C)(OC)[C@@H](O)[C@H](C)O2)[C@H](C)[C@@H](O[C@@H]2O[C@H](C)C[C@H](N(C)C)[C@H]2O)[C@](C)(O)C[C@@H](C)C(=O)[C@H](C)[C@@H](O)[C@]1(C)O [erythromycin] | 23.96 | sensitive | Sensitivity ([2]; standard for erythromycin): S (≥23)
6 | CN(C)c1ccc(O)c2c1C[C@H]1C[C@H]3[C@H](N(C)C)C(O)=C(C(N)=O)C(=O)[C@@]3(O)C(O)=C1C2=O [minocycline] | 29.33 | – | Sensitivity [2, 5]: S (≥19)
7 | CN(C)[C@@H]1C(O)=C(C(N)=O)C(=O)[C@@]2(O)C(O)=C3C(=O)c4c(O)cccc4[C@@](C)(O)[C@H]3C[C@@H]12 [tetracycline] | 25.85 | – | Sensitivity [2, 5]: S (≥19)
8 | Penicillin [Penicillin (P)] | 15.72 | resistance | Sensitivity [2, 4]: R (≤28)
9 | cotrimoxazole | 0 | resistance | –
